Source: patent US20260335323A1, “CHIMERIC MOLECULE” (UCL Business Ltd, priority 2023, published 2026)

Experiments:
SH-SY5Y cells = test: mito-mKeima mitophagy assay (mitophagy index); type: cell-based, human; settings: for enhancement of mitophagy: co-treating with excess TSPO ligand
Method: (§1) FIG. 1. The structure of AUTAC-4 is shown in (A). (B) Representative images of SH-SY5Y cells stably expressing the mito-mKeima reporter treated with AUTAC4 for 18 h. Nuclei were stained with Hoechst 33342, healthy mitochondria are shown in green and mitochondria in lysosomes are shown in red. (C-E) Fold change in mitophagy index over time after treatment with increasing concentrations of AUTAC4 under treatment with DMSO (C), 3 mM CCCP (D) or 0.1/0.1 mM antimycin/oligomycin (E), also for 18 h. (F) Quantification of changes in mitochondrial membrane potential over time (DYm) by measuring the TMRM relative fluorescence intensity (RFI) treated with DMSO, 10 mM CCCP, 10 mM and 20 mM AUTAC4. Normalised to number of nuclei. (G) Representative western blot of SH-SY5Y cells treated with DMSO, 10 mM AUTAC4 or 10 mM AUTAC4+0.1/0.1 mM antimycin/oligomycin for 18 h and, probed for p62, b-actin and Tom20. Quantifications of western blot for changes in Tom20 and p62 levels shown in (H) and (I), respectively. (J) Representative images of PANC-1 cells stably expressing the mCherry-EGFP-LC3 tandem reporter. Nuclei stained with Hoechst 33342, autophagosomes are shown in the EGFP channel and autolysosomes in the mCherry channel. Fold change in the number of autophagosome (K) and autolysosome (L) puncta in AUTAC4 treated cells. All data shown are mean±SEM, n=3, *p<0.05, *** p<0.001. For mito-mKeima experiments, statistics were calculated by Two-way ANOVA with Tukey's multiple comparisons test. For western blots, TMRM and LC3 tandem reporter assay, statistics were calculated with one-way ANOVA with Tukey's multiple comparisons test.
FIG. 5. ULKTACs induce potent mitophagy after colocalisation and local activation of ULK1 at mitochondria (A) Representative immunofluorescence of PANC-1 cells treated with CCCP, ULKTACs or both and immunostained for TOM20 and ULK1 and counterstained with Alexa 488 and 568, respectively. Nuclei stained with Hoechst 33342. (B) Quantification of the colocalised ULK1 to TOM20 spot area of PANC-1 cells treated with DMSO, 5 mM CCCP, 10 mM BL-918, 10 mM BL-918+5 mM CCCP, […] NZ-65, […] NZ-65+5 mM CCCP, […] NZ-66, […] NZ-66+5 mM CCCP, 50 mM TSPO ligand, […] NZ-65+50 mM TSPO ligand, […] NZ-66+50 mM TSPO ligand. (C) Western blot of SH-SY5Y cells treated with 1 mM ULKTACs, 5 mM CCCP or both, probed for Mfn2, b-Actin and Tom20—quantifications are shown in (D) for Mfn2, normalised to Actin. (E) Representative images of SH-SY5Y cells stably expressing the mito-mKeima reporter treated with 3 mM CCCP, NZ-65 or both. Nuclei were stained with Hoechst 33342, healthy mitochondria are shown in green and mitochondria in lysosomes are shown in red. Fold change in mitophagy index over time after treatment for the indicated timepoints with title treatments alone or co-treated with 1.25 mM ULKTAC or 10 mM ULKTAC NZ-65 (F) or NZ-66 (G). Fold change in mitophagy index over time after treatment for the indicated timepoints with DMSO, 1.25 µM NZ-65 or NZ-66±50 µM TSPO ligand under co-treatment with DMSO (H) or 3 μM CCCP (I). […] Normalised to number of nuclei. All data shown are mean±SEM, n=3, *p<0.05, ** p<0.01, *** p<0.001. For colocalisation and TMRM experiments, one-way ANOVA with Dunnett's multiple comparisons test. For western blots, one-way ANOVA with Tukey's multiple comparisons test and unpaired t-test. For mito-mKeima experiment, two-way ANOVA with Tukey's multiple comparisons test.
SH-SY5Y stably expressing mito-mKeima were produced as previously described28,29. Cells were seeded in 384 well CellCarrier Ultra plates (PerkinElmer) 24 hours before treatment in complete media without phenol red. Cells were treated with increasing concentrations of BL-918, AUTAC4, NZ-65 or NZ-66, 24 hours prior to treatment with increasing concentrations of mitochondrial uncouplers to cause mitochondrial insult. SH-SY5Y mitochondria were treated with DMSO, 3 μM CCCP, 10 μM CCCP, 0.1/0.1 μM antimycin/oligomycin (AO), 0.5/0.5 µM AO or 1/1 μM AO. […]

PANC-1 cells = test: mCherry-EGFP-LC3 tandem reporter assay, autophagosomes/autolysosomes; type: cell-based, human; settings: for autophagic flux: bafilomycin A1 co-treatment; for enhanced number of mCherry puncta: co-treatment with bafilomycin A1; for fold increase in number of mCherry puncta: mCherry puncta (autolysosomes); for fold increase in number of EGFP puncta: panc-1 cells
Method: as §1
FIG. 2. BL-918 is a potent ULK1 agonist and autophagy inducer (A) Representative images of PANC-1 cells stably expressing the mCherry-EGFP-LC3 tandem reporter treated with ULK1 agonists. Nuclei stained with Hoechst 33342, autophagosomes are shown in the EGFP channel and autolysosomes in the mCherry channel. Fold change in the number of autophagosomes (B) and autolysosomes (C) puncta in ULK1 agonist treated cells. (D) Western blot of PANC-1 cells treated with DMSO, bafilomycin and ULK1 agonists±bafilomycin; probed for p-ULK1 (S317), ULK1, p62, b-actin, LC3-I and LC3-II. Quantifications of western blot for changes in the ratio of p-ULK1 (S317):ULK1 (E), p62 (F) and LC31:LC3II (G). All data shown are mean±SEM, n=3, *p<0.05, ** p<0.01, one-way ANOVA with Dunnett's multiple comparisons test.
FIG. 4. ULKTACs retain ULK1 agonist activity and subsequent induction of autophagy (A) Western blot of PANC-1 cells treated with ULKTACs±bafilomycin, probed for p-ULK1 (S317), ULK1, p62, b-Actin, LC31 and LC3II. Quantifications of (A) for the pULK1:ULK1 ratio (B) LC3I:LC3II ratio (C) and changes in p62 (D). (E) Representative images of PANC-1 cells stably expressing the mCherry-EGFP-LC3 tandem reporter treated with ULKTACs w/or w/o bafilomycin. Nuclei stained with Hoechst 33342, autophagosomes are shown in the EGFP channel and autolysosomes in the mCherry channel. Fold change in the number of autophagosome (F) and autolysosome (G) puncta. Data shown are mean±SEM, *p<0.05, ** p<0.01, *** p<0.001, one-way ANOVA, Dunnett's multiple comparisons test.
PANC-1 and A549 cells were separately seeded at a medium density in 24-well plates and infected overnight with 500 μL of filtered viral supernatant containing polybrene at a final concentration of 8 μg/mL. Cells were selected at 48 h post-transfection with 1 μg/mL puromycin and expanded into 10 cm tissue-culture treated dishes. Puromycin treatment was withheld once control cells had died. Experiments were performed without puromycin present using pooled populations of transduced cells. A549 and PANC-1 stably expressing mCherry-EGFP-LC3 tandem reporter cells were imaged with the PerkinElmer Opera Phenix or Opera Phenix Plus High Content Imaging Systems and analysed using Columbus software (v2.9.1). […]

[1] = co-treatment with antimycin/oligomycin

Compound	induction of mitophagy (SH-SY5Y cells; compound alone, higher concentrations)	green fluorescent puncta / number of autophagosomes (PANC-1 cells)	enhancement of mitophagy (SH-SY5Y cells)	enhancement of induced mitophagy (SH-SY5Y cells; co-treatment with CCCP)	enhancement of induced mitophagy (SH-SY5Y cells; [1])	autophagic flux (PANC-1 cells)	enhanced number of mCherry puncta (PANC-1 cells)	fold increase in number of mCherry puncta (PANC-1 cells)	fold increase in number of EGFP puncta (PANC-1 cells)
O=C(Nc1ccc(F)cc1F)[C@H](NC(=S)Nc1cc(C(F)(F)F)cc(C(F)(F)F)c1)c1ccccc1 [BL-918, reference compound]	induction of mitophagy only at higher concentrations	mild increase in autophagosome number							
O=C(Nc1cc(C(F)(F)F)cc(C(F)(F)F)c1)N[C@@H](C(=O)Nc1ccc(F)cc1F)c1ccc(OCc2cn(CCOCCOCCNC(=O)C(=O)c3c(-c4ccccc4)[nH]c4ccccc34)nn2)cc1 [NZ-65, (R)-2-(3-(3,5-bis(trifluoromethyl)phenyl)ureido)-N-(2,4-difluorophenyl)-2-(4-((1-(2-(2-(2-(2-oxo-2-(2-phenyl-1H-indol-3-yl)acetamido)ethoxy)ethoxy)ethyl)-1H-1,2,3-triazol-4-yl)methoxy)phenyl) acetamide]			restricts enhancement of mitophagy	remarkably strong increases in mitophagy	remarkably strong increases in mitophagy	did not block autophagic flux	reversed	1.3 fold	1.5 fold
O=C(Nc1cc(C(F)(F)F)cc(C(F)(F)F)c1)N[C@@H](C(=O)Nc1ccc(F)cc1F)c1ccc(OCc2cn(CCCCCCNC(=O)C(=O)c3c(-c4ccccc4)[nH]c4ccccc34)nn2)cc1 [NZ-66, (R)-2-(3-(3,5-bis(trifluoromethyl)phenyl)ureido)-N-(2,4-difluorophenyl)-2-(4-((1-(6-(2-oxo-2-(2-phenyl-1H-indol-3-yl)acetamido)hexyl)-1H-1,2,3-triazol-4-yl)methoxy)phenyl) acetamide]			restricts enhancement of mitophagy	remarkably strong increases in mitophagy	remarkably strong increases in mitophagy	did not block autophagic flux	reversed	1.3 fold	1.5 fold
